Legend:
[1] = biological target: T1, Protein mono-ADP-ribosyltransferase PARP15 (Homo sapiens, UniProt Q460N3); assay: Inhibition of N-terminal His-tagged human ARTD7 (482 to 678 residues) expressed in Escherichia coli Rosetta2 (DE3) using SRPK2 as substrate after 3 hrs in presence of NAD+
T1 sequence (Q460N3 whole entry): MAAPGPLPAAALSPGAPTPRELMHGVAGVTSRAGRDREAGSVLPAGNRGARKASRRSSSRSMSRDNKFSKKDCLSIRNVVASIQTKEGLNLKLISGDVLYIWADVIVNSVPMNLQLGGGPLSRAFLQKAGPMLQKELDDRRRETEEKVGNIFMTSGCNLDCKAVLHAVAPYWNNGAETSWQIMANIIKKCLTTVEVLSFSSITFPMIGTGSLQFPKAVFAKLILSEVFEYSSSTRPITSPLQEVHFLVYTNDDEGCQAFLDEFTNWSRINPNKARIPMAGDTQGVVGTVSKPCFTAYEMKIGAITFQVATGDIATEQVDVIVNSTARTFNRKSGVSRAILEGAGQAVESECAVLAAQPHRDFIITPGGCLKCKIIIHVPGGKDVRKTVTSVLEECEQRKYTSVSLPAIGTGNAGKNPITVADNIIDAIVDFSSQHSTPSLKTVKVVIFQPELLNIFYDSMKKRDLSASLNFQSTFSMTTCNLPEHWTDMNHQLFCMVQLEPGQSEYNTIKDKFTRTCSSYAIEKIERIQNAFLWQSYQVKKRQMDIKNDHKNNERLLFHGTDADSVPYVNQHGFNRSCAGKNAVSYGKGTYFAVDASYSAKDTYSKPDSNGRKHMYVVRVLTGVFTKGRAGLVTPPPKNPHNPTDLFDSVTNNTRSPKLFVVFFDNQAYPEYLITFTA

[2] = biological target: T2, Protein mono-ADP-ribosyltransferase PARP10 (Homo sapiens, UniProt Q53GL7); assay: Inhibition of C-terminal His-tagged human ARTD10 (809 to 1017 residues) expressed in Escherichia coli Rosetta2 (DE3) using SRPK2 as substrate after 13 hrs in presence of NAD+
T2 sequence (Q53GL7 whole entry): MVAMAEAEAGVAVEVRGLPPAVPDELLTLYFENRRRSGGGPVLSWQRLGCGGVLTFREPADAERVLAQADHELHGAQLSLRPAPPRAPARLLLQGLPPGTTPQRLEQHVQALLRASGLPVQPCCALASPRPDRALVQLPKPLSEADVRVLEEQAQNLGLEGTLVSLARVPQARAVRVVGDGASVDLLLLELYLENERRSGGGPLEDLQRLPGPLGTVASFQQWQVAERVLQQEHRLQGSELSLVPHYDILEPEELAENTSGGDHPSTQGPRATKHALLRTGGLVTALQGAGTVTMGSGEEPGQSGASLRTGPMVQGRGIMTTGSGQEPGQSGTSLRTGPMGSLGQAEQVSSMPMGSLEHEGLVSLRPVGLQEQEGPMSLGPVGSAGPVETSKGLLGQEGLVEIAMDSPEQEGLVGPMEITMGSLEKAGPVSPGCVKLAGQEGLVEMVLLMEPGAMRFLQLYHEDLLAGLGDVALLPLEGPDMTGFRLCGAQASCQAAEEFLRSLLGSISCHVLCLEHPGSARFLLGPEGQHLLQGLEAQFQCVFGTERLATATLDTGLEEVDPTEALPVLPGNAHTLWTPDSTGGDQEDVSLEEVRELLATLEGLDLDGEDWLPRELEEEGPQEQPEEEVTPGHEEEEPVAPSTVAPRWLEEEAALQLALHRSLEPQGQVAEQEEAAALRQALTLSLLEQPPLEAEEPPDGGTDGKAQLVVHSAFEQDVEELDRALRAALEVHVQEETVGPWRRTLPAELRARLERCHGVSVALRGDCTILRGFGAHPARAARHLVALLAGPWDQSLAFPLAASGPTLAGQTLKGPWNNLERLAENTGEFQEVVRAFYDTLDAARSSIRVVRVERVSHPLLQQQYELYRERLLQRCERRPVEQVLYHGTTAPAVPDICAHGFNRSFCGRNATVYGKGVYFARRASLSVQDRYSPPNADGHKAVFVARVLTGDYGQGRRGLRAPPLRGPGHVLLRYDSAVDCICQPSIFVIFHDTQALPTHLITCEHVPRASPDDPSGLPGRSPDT

[3] = biological target: Protein mono-ADP-ribosyltransferase PARP14 (Homo sapiens, UniProt Q460N5); assay: Inhibition of N-terminal His-tagged thioredoxin-fused human ARTD8 (1535 to 1801 residues) expressed in Escherichia coli Rosetta2 (DE3) after 21 hrs in presence of NAD+
Protein mono-ADP-ribosyltransferase PARP14, sequence (Q460N5 whole entry, the tested form may be a part): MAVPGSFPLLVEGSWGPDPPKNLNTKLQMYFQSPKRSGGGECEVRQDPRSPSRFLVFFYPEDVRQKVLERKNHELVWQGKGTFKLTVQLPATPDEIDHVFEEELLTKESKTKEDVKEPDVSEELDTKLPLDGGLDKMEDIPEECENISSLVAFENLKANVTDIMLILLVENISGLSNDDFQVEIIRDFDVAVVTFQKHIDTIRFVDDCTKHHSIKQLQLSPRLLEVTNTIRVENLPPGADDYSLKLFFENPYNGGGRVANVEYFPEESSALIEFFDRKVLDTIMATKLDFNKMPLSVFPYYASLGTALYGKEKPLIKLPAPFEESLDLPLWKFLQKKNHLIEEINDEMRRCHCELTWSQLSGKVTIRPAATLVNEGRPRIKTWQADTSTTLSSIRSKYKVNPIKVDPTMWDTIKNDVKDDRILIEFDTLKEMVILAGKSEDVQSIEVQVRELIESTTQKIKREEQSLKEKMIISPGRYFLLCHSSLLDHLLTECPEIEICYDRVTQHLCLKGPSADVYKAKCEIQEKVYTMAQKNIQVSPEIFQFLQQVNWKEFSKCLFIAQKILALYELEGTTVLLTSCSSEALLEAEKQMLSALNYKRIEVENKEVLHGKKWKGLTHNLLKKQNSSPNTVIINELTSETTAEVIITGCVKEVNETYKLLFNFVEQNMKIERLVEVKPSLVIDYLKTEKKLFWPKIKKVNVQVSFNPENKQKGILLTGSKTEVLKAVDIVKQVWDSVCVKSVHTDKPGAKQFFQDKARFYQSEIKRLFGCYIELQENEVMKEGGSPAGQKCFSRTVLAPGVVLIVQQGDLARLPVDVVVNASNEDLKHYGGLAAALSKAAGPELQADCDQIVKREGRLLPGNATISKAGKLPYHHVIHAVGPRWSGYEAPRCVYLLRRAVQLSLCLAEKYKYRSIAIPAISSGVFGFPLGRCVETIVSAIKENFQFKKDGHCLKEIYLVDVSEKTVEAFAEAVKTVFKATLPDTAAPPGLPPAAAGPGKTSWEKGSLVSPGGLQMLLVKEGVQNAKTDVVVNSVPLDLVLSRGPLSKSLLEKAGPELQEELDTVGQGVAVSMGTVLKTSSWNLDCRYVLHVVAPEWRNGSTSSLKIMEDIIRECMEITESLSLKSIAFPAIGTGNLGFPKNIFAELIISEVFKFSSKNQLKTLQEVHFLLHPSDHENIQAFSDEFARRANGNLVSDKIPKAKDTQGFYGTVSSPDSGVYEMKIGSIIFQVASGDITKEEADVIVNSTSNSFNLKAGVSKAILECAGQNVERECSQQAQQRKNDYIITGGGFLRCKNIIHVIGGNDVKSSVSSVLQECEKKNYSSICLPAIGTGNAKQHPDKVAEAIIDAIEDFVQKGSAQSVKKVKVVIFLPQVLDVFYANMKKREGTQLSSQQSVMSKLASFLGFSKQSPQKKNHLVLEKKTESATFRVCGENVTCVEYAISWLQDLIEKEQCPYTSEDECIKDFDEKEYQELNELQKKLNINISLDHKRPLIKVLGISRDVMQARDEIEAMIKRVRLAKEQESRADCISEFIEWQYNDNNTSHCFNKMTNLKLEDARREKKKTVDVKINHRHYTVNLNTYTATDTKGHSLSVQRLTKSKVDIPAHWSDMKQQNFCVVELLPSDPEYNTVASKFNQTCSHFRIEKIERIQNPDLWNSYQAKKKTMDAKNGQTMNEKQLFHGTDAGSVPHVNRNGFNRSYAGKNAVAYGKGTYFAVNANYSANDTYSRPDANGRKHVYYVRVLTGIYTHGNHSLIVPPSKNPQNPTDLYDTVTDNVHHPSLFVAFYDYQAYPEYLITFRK

`NC(=O)c1ccc(OCc2ccccc2F)cc1` showed an IC50 [1] of 3300 nM, an IC50 ([2]; read-out: IC50) of 230 nM and an IC50 ([2]; read-out: pIC50 (converted)) of 234 nM. For the same compound, the IC50 [3] was 10000 nM.
`NC(=O)c1ccc(Oc2ccc(C=O)cc2)cc1` gave an IC50 [1] of over 10000 nM, an IC50 ([2]; read-out: IC50) of 710 nM and an IC50 [3] of over 10000 nM.
For `COc1ccc(C(N)=O)cc1`, the IC50 [1] was over 10000 nM, the IC50 ([2]; read-out: IC50) was 2800 nM and the IC50 ([2]; read-out: pIC50 (converted)) was 2750 nM. The IC50 [3] was over 10000 nM.
Compound `NC(=O)c1ccc(Oc2ccc(C(=O)O)cc2)cc1` has an IC50 [1] of 2600 nM, an IC50 ([2]; read-out: IC50) of 180 nM and an IC50 ([2]; read-out: pIC50 (converted)) of 186 nM. For the same compound, the IC50 [3] was over 10000 nM.

— ChEMBL document CHEMBL4270552, “4-(Phenoxy) and 4-(benzyloxy)benzamides as potent and selective inhibitors of mono-ADP-ribosyltransferase PARP10/ARTD10” (Eur J Med Chem, 2018)
